Test results from patent US20100267561A1, “HERBICIDAL PYRIDAZINONE DERIVATIVES” (priority 2007, published 2010).

Assays:
Assay type in all cases: in vivo
[1] = system: Italian ryegrass (Lolium multiflorum); assay: Test B pre-/postemergence plant response
Summary of the method: (§1)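 Preemergence and postemergence (plants 2-18 cm, 1- to 4-leaf stage) applications used test chemicals in a non-phytotoxic solvent with surfactant. Plants were held in a greenhouse 13 to 15 days, then rated visually against controls on a 0-100 scale (0 no effect, 100 complete control).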

[2] = system: blackgrass (Alopecurus myosuroides); assay: Test B pre-/postemergence plant response; conditions: for Blackgrass plant response rating: 8 g ai/ha
Summary of the method: as §1

[3] = system: catchweed bedstraw (Galium aparine); assay: Test B pre-/postemergence plant response; conditions: Preemergence; for Galium plant response rating: scale 0 to 100
Summary of the method: as §1

[4] = system: common (oilseed) sunflower (Helianthus annuus); assay: Test B pre-/postemergence plant response; conditions: Preemergence; for Sunflower plant response rating: scale 0 to 100
Summary of the method: as §1

[5] = system: common ragweed (Ambrosia elation); assay: Test B pre-/postemergence plant response
Summary of the method: as §1

[6] = system: downy bromegrass (Bromus tectorum); assay: Test B pre-/postemergence plant response; conditions: for Bromegrass, Downy plant response rating: 8 g ai/ha
Summary of the method: as §1

[7] = system: eastern black (E.B.) nightshade (Solanum ptycanthum); assay: Test B pre-/postemergence plant response; conditions: Preemergence; for Nightshade, E. B. plant response rating: scale 0 to 100
Summary of the method: as §1

[8] = system: johnsongrass (Sorghum halepense); assay: Test B pre-/postemergence plant response
Summary of the method: as §1

[9] = system: large crabgrass (Digitaria sanguinalis); assay: Test B pre-/postemergence plant response
Summary of the method: as §1

[10] = system: morningglory (Ipomoea coccinea); assay: Test B pre-/postemergence plant response
Summary of the method: as §1

[11] = system: pigweed (Amaranthus retroflexus); assay: Test B pre-/postemergence plant response
Summary of the method: as §1

[12] = system: wild oat (Avena fatua); assay: Test B pre-/postemergence plant response
Summary of the method: as §1

[13] = system: barnyardgrass (Echinochloa crus-galli); assay: Test B flooded paddy test plant response
Summary of the method: (§2)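 Rice, umbrella sedge, ducksalad and barnyardgrass at 2-leaf stage; pots flooded to 3 cm, compounds applied into paddy water, depth held throughout. Greenhouse 13 to 15 days, then visual rating vs untreated controls on 0–100 scale (0 no effect, 100 complete control); dash means no test result.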

[14] = system: rice (Oryza sativa); assay: Test B flooded paddy test plant response
Summary of the method: as §2

[15] = Preemergence, 31 g ai/ha, scale 0 to 100 (0 no effect, 100 complete control)
[16] = Preemergence, 62 g ai/ha, 0 to 100 scale, 0 no effect, 100 complete control
[17] = Preemergence, 8 g ai/ha, scale 0 to 100
[18] = Preemergence, 16 g ai/ha, scale 0 to 100
[19] = Preemergence, 16 g ai/ha, scale 0 to 100 (0 no effect, 100 complete control)
[20] = 31 g ai/ha, scale 0 to 100 (0 no effect, 100 complete control)
[21] = 62 g ai/ha, 0 to 100 scale, 0 no effect, 100 complete control
[22] = Flood (flooded paddy test), 62 g ai/ha, scale 0 to 100, 0 no effect, 100 complete control
[23] = Flood (flooded paddy test), 250 g ai/ha, scale 0 to 100, 0 no effect, 100 complete control
[24] = 8 g ai/ha, postemergence, 0-100 scale
[25] = 16 g ai/ha, postemergence, 0-100 scale
[26] = Postemergence, 31 g ai/ha, scale 0 to 100
[27] = Postemergence, 62 g ai/ha, scale 0 to 100, 0 no effect, 100 complete control
[28] = Postemergence, 16 g ai/ha, scale 0 to 100
[29] = Flood (flooded paddy test), 125 g ai/ha, scale 0 to 100, 0 no effect, 100 complete control
[30] = Flood, 31 g ai/ha, scale 0 to 100

C#CCOC(=O)Oc1cnn(C)c(=O)c1-n1nc(-c2ccc(Cl)cc2)cc1C [Compound 58]
Plant response rating, Ryegrass, Italian [1, 15]: 100
Plant response rating, Ryegrass, Italian [1, 16]: 100
Ryegrass, Italian plant response rating [1, 17]: 0
Ryegrass, Italian plant response rating [1, 18]: 100
Plant response rating, Blackgrass [2, 19]: 100
Plant response rating, Blackgrass [2, 15]: 100
Plant response rating, Blackgrass [2, 16]: 100
Blackgrass plant response rating ([2]; Preemergence, scale 0 to 100): 80
Plant response rating, Galium [3, 20]: 0
Plant response rating, Galium [3, 21]: 0
Galium plant response rating ([3]; 8 g ai/ha): 0
Galium plant response rating ([3]; 16 g ai/ha): 0
Plant response rating, Sunflower [4, 20]: 0
Plant response rating, Sunflower [4, 21]: 0
Sunflower plant response rating ([4]; 8 g ai/ha): 0
Sunflower plant response rating ([4]; 16 g ai/ha): 0
Plant response rating, Ragweed [5, 15]: 0
Plant response rating, Ragweed [5, 16]: 0
Ragweed plant response rating [5, 17]: 0
Ragweed plant response rating [5, 18]: 0
Plant response rating, Bromegrass, Downy [6, 15]: 65
Plant response rating, Bromegrass, Downy [6, 16]: 85
Bromegrass, Downy plant response rating ([6]; Preemergence, scale 0 to 100): 0
Plant response rating, Nightshade, E. B. [7, 20]: 0
Plant response rating, Nightshade, E. B. [7, 21]: 0
Nightshade, E. B. plant response rating ([7]; 8 g ai/ha): 0
Nightshade, E. B. plant response rating ([7]; 16 g ai/ha): 0
Plant response rating, Johnsongrass [8, 15]: 40
Plant response rating, Johnsongrass [8, 16]: 60
Johnsongrass plant response rating [8, 17]: 0
Johnsongrass plant response rating [8, 18]: 0
Plant response rating, Crabgrass, Large [9, 15]: 90
Plant response rating, Crabgrass, Large [9, 16]: 100
Crabgrass, Large plant response rating [9, 17]: 50
Crabgrass, Large plant response rating [9, 18]: 75
Plant response rating, Morningglory [10, 15]: 0
Plant response rating, Morningglory [10, 16]: 0
Morningglory plant response rating [10, 17]: 0
Morningglory plant response rating [10, 18]: 0
Plant response rating, Pigweed [11, 15]: 0
Plant response rating, Pigweed [11, 16]: 0
Pigweed plant response rating [11, 17]: 0
Pigweed plant response rating [11, 18]: 0
Plant response rating, Oat, Wild [12, 15]: 80
Plant response rating, Oat, Wild [12, 16]: 95
Oat, Wild plant response rating [12, 17]: 80
Oat, Wild plant response rating [12, 18]: 80
Plant response rating, Barnyardgrass [13, 22]: 30
Plant response rating, Barnyardgrass [13, 23]: 70
Plant response rating, Rice [14, 22]: 0
Plant response rating, Rice [14, 23]: 60

CCc1cc(-c2ccc(Br)cc2)nn1-c1c(O)cnn(C)c1=O [Compound 61]
Ryegrass, Italian plant response rating [1, 24]: 100
Ryegrass, Italian plant response rating [1, 25]: 100
Plant response rating, Ryegrass, Italian [1, 26]: 100
Plant response rating, Ryegrass, Italian [1, 27]: 100
Plant response rating, Ryegrass, Italian [1, 15]: 100
Plant response rating, Ryegrass, Italian [1, 16]: 100
Ryegrass, Italian plant response rating [1, 17]: 85
Ryegrass, Italian plant response rating [1, 18]: 100
Blackgrass plant response rating ([2]; postemergence, 0-100 scale): 85
Plant response rating, Blackgrass [2, 28]: 100
Plant response rating, Blackgrass [2, 26]: 100
Plant response rating, Blackgrass [2, 27]: 100
Plant response rating, Blackgrass [2, 19]: 100
Plant response rating, Blackgrass [2, 15]: 100
Plant response rating, Blackgrass [2, 16]: 100
Blackgrass plant response rating ([2]; Preemergence, scale 0 to 100): 40
Plant response rating, Galium [3, 20]: 0
Plant response rating, Galium [3, 21]: 0
Galium plant response rating ([3]; 8 g ai/ha): 0
Plant response rating, Sunflower [4, 20]: 0
Plant response rating, Sunflower [4, 21]: 0
Sunflower plant response rating ([4]; 8 g ai/ha): 0
Sunflower plant response rating ([4]; 16 g ai/ha): 0
Ragweed plant response rating [5, 24]: 0
Ragweed plant response rating [5, 25]: 0
Plant response rating, Ragweed [5, 26]: 0
Plant response rating, Ragweed [5, 27]: 0
Plant response rating, Ragweed [5, 15]: 0
Plant response rating, Ragweed [5, 16]: 0
Ragweed plant response rating [5, 17]: 0
Ragweed plant response rating [5, 18]: 0
Bromegrass, Downy plant response rating ([6]; postemergence, 0-100 scale): 80
Plant response rating, Bromegrass, Downy [6, 28]: 90
Plant response rating, Bromegrass, Downy [6, 26]: 98
Plant response rating, Bromegrass, Downy [6, 27]: 98
Plant response rating, Bromegrass, Downy [6, 19]: 90
Plant response rating, Bromegrass, Downy [6, 15]: 95
Plant response rating, Bromegrass, Downy [6, 16]: 95
Bromegrass, Downy plant response rating ([6]; Preemergence, scale 0 to 100): 0
Plant response rating, Nightshade, E. B. [7, 20]: 0
Plant response rating, Nightshade, E. B. [7, 21]: 0
Nightshade, E. B. plant response rating ([7]; 16 g ai/ha): 0
Johnsongrass plant response rating [8, 24]: 65
Johnsongrass plant response rating [8, 25]: 100
Plant response rating, Johnsongrass [8, 26]: 100
Plant response rating, Johnsongrass [8, 27]: 100
Plant response rating, Johnsongrass [8, 15]: 100
Plant response rating, Johnsongrass [8, 16]: 100
Johnsongrass plant response rating [8, 17]: 90
Johnsongrass plant response rating [8, 18]: 95
Crabgrass, Large plant response rating [9, 24]: 98
Plant response rating, Crabgrass, Large [9, 28]: 100
Plant response rating, Crabgrass, Large [9, 26]: 100
Plant response rating, Crabgrass, Large [9, 27]: 100
Plant response rating, Crabgrass, Large [9, 15]: 100
Plant response rating, Crabgrass, Large [9, 16]: 100
Crabgrass, Large plant response rating [9, 17]: 50
Crabgrass, Large plant response rating [9, 18]: 95
Morningglory plant response rating [10, 24]: 0
Morningglory plant response rating [10, 25]: 0
Plant response rating, Morningglory [10, 26]: 0
Plant response rating, Morningglory [10, 27]: 0
Plant response rating, Morningglory [10, 15]: 0
Plant response rating, Morningglory [10, 16]: 0
Morningglory plant response rating [10, 17]: 0
Morningglory plant response rating [10, 18]: 0
Pigweed plant response rating [11, 24]: 0
Pigweed plant response rating [11, 25]: 0
Plant response rating, Pigweed [11, 26]: 0
Plant response rating, Pigweed [11, 27]: 0
Plant response rating, Pigweed [11, 15]: 0
Plant response rating, Pigweed [11, 16]: 0
Pigweed plant response rating [11, 17]: 0
Pigweed plant response rating [11, 18]: 0
Oat, Wild plant response rating [12, 24]: 100
Oat, Wild plant response rating [12, 25]: 100
Plant response rating, Oat, Wild [12, 26]: 100
Plant response rating, Oat, Wild [12, 27]: 100
Plant response rating, Oat, Wild [12, 15]: 95
Plant response rating, Oat, Wild [12, 16]: 100
Oat, Wild plant response rating [12, 17]: 40
Oat, Wild plant response rating [12, 18]: 90
Plant response rating, Barnyardgrass [13, 22]: 0
Plant response rating, Barnyardgrass [13, 29]: 50
Plant response rating, Barnyardgrass [13, 23]: 100
Plant response rating, Barnyardgrass [13, 30]: 0
Plant response rating, Rice [14, 22]: 0
Plant response rating, Rice [14, 29]: 15
Plant response rating, Rice [14, 23]: 60
Plant response rating, Rice [14, 30]: 0
